From article PMC8171317, “Total synthesis, isolation, surfactant properties, and biological evaluation of ananatosides and related macrodilactone-containing rhamnolipids” (Chemical Science, 2021)
Read-outs that look alike come from different tables or passages of the source. Marks after values point to notes of the source that are not given here.

Key:
sheep blood erythrocytes = experiment: Hemolytic activity; type: cell-based
Procedure: Owing to their surfactant properties, glycolipids can break the membrane of red blood cells causing hemolytic activity.[18] To understand if the cytotoxicity of macrolactones 1, 4, 5β, and 6β was due to their surface tension activity, we evaluated the hemolytic potential of synthetic glycolipids 1–6 against sheep erythrocytes (Table 5). […] The non-cytotoxic rhamnolipid 3 was also found to exert a weak hemolytic activity (HC50 = 65 ± 6 μM). […]
Hemolytic Activity. The hemolytic activity of the synthetic surfactants was evaluated as previously described with small modifications.10 Defibrinated sheep blood (Oxoid) was centri fuged at 1000 × g for 5 min. The pellet containing erythrocytes was washed once and suspended in 1X PBS to obtain a 1% erythrocytes suspension. All samples were suspended in DMSO/PBS (5:1 v/v) and serially diluted in a 96 -well plate to obtain a range of co ncentrations from 1 mM to 7.8 µM.
The erythrocytes suspension (160 µL) was added to 40 µL of samples to obtain final concentrations […]
ranging between 200 µM and 1.56 µM. Triton X-100 was used as a positive hemolysis control.
The plate was then incubated at 37 °C with agitation at 150 rpm for 1 h and centrifuged at 1500 × g for 5 min. The supernatant was transferred in an empty plate and absorbance was measured at 540 nm using a Cytation3 microplate reader (Biotek). HC50 was calculated in comparison with the positive control. The experiment was performed in triplicate and repeated three times. […]

[1] = tested on: human colorectal adenocarcinoma (DLD-1); experiment: Cytotoxicity, resazurin assay; type: cell-based; conditions: 48 h, max tested 200 μM
Procedure: (§1) As the anticancer potential of microbial rhamnolipids has previously been reported,[16] we next sought to evaluate the in vitro cytotoxicity of our synthetic and natural glycolipids 1–6 against cancerous cell lines, i.e., human lung carcinoma (A549) and colorectal adenocarcinoma (DLD-1). The compounds were also tested against human normal skin fibroblasts (WS1) to estimate their selectivity towards cancer cells.
(§2) 4. Experimental Procedures for Biological Evaluation and Surfactant Properties. […]
(§3) Cell Culture. Human lung carcinoma (A549), human colorectal adenocarcinoma (DLD-1), and human normal skin fibroblasts (WS1) cell lines were obtained from the American Type Culture Collection (ATCC). All cell lines were cultured in minimum essential medium containing Earle’s […]
(§4) salts and L-glutamine (Mediatech Cellgro, VA), to which were added 10% foetal bovine serum (Hyclone), vitamins (1×), penicillin (100 IU•mL-1), streptomycin (100 µg•mL−1), essential amino acids (1×), and sodium pyruvate (1×) (Mediatech Cellgro, VA). Cells were kept at 37 °C in a humidified environment containing 5% CO2.
(§5) Cytotoxicity Assay. Exponentially growing A549, DLD-1 or WS1 cells were plated in 96-well microplates (Costar, Corning Inc.) at a density of 5 × 10^3 cells per well in 100 µL of culture medium and were allowed to adhere for 16 h prior treatment. Increasing concentrations of each compound in biotech DMSO (Sigma-Aldrich) were then added (100 µL per well) and the cells were incubated for 48 h. The final concentration of DMSO in the culture medium was maintained at 0.5% (v/v) to avoid solvent toxicity. Cytotoxicity was assessed using resazurin9 on an automated 96-well Fluoroskan Ascent F1TM plate reader (Labsystems) using excitation and emission wavelengths of 530 and 590 nm, respectively. Fluorescence was proportional to the cellular metabolic activity in each well. Survival percentage was defined as the fluorescence in experimental wells as compared to that in control wells after subtraction of blank values. Each experiment was carried out three times in triplicate. IC50 results were expressed as means ± standard deviation. […]

[2] = tested on: human lung carcinoma (A549); experiment: Cytotoxicity, resazurin assay; type: cell-based; conditions: 48 h, max tested 200 μM
Procedure: as §1, §2, §3, §4, §5

[3] = tested on: human normal skin fibroblasts (WS1); experiment: Cytotoxicity, resazurin assay; type: cell-based; conditions: 48 h, max tested 200 μM
Procedure: as §1, §2, §3, §4, §5

[4] = Cytotoxicity, resazurin assay; type: cell-based, human; conditions: human, max tested 200 μM
Procedure: as §1, §2, §3, §4, §5

[5] = Cytotoxicity, resazurin assay, summary over cell lines; type: cell-based; conditions: human, DLD-1 and WS1 cells (summary over the three lines); A549, DLD-1 and WS1; read-out: Cytotoxicity IC50 against human cell lines
Procedure: as §1, §2, §3, §4, §5

[6] = Dynamic light scattering (Zetasizer), hydrodynamic diameter of micelles; type: physicochemical; conditions: pH 7.0; concentration 80 μM
From the text: In parallel to these experiments, we took advantage of dynamic light scattering (DLS) to evaluate the hydrodynamic diameter of biosurfactant micelles formed at concentrations above the CMC (Table 4).[79] DLS considers the intensity of light scattered by spherical particles, which prevents its application for highly polydisperse and non-spherical colloidal systems. […] Once again, due to its hydrophobicity, ananatoside A (1) was too polydisperse for conducting a proper distribution analysis, showing a Z-average value above 800 nm, which meant that the particles were aggregated in water at the tested concentration. Similar results were obtained for ananatoside A (1) when the DLS experiments were conducted in DMSO as the solvent.

[7] = set-up: method as in PMID 17105155; conditions: estimated; cited from earlier work
tomato leaf disks = experiment: Extracellular ROS production, luminol chemiluminescence; type: cell-based, Solanum lycopersicum; conditions: 100 μM, monitored over 720 min
From the text: Bacterial rhamnolipids, such as compound 3, trigger the plant immune system, which can ultimately lead to plant protection against diseases caused by fungal and bacterial pathogens.[23] As ananatoside A (1) and ananatoside B (2) share structural similarities with rhamnolipid 3 and because they have been isolated from P. ananatis cultures, an emerging plant pathogen causing important agricultural damage worldwide,[81] we wanted to investigate whether these bacterial glycolipids, along with our unprecedented series of synthetic rhamnolactones, could be perceived by the plant immune system. We relied on measuring the extracellular content of reactive oxygen species (ROS) produced by tomato plants (Solanum lycopersicum) following treatment with the synthetic compounds, as an early and important marker of plant immunity.[20,22,82] Tomato leaves were challenged with synthetic glycolipids 1–6 at concentrations of 100 μM and the production of ROS was monitored over a 720 min time frame (Fig. 5).
Fig. 5 Extracellular reactive oxygen species (ROS) production following treatment of tomato leaf disks with ananatoside A (1), ananatoside B (2), RhaC10C10 (3), and related macrodilactone-containing rhamnolipids (4–6). Production of ROS was measured in tomato leaf disks following treatment at 100 μM with synthetic glycolipids (1–6). MeOH (0.5%) was used as a control. ROS production was measured using the chemiluminescence of luminol and photon counts were expressed as relative luminescence units (RLUs). Data are mean ± SEM (n = 6). Experiments were independently realized three times with similar results. […]
Plant Material and Growth Conditions. Tomato plants (Solanum lycopersicum L var. Ailsa craig, Scotland) were grown on soil in growth chamber with white fluorescent light [200 μmol•(m−2 s−1)], under 16 h/8 h light/dark regime, 60% relative humidity , and a temperature of 24 /20 °C during four weeks prior treatment. Arabidopsis thaliana plants (ecotype Col -0) were grown on soil in growth chambers with white fluorescent light (150 μmol m−2 s−1), under 12 h/12 h light/dark regime, 60% relative humidity, and a temperature of 20/20 °C during six weeks prior treatment.
Reactive Oxygen Species (ROS) Production. ROS assays were performed on four-week old tomato plants or six-week old Arabidopsis plants. Briefly, tomato leaf disks of 6 mm diameter or Arabidopsis petiole sections of 5 mm long were cut and placed in a 96-well plate (Optiplate TM-96 white, PerkinElmer) containing 150 µL of distilled H2O and then incubated at rt for 24 h to reduce the wounding response.11 The elicitation solution containing 0.2 µg•mL−1 luminol (A4685-5 g, Sigma), […] (P6782, Sigma) and the tested glycolipids (1, 2, 3, 4, 5α, 5β, 6α or 6β) at 100 μM was prepared. Methanol (0.5%) was used as negative control. Prior elicitation, the incubating distilled H2O was carefully removed from each well, avoiding any tissue damage or desiccation. Then, the elicitation solution (150 µL) was quickly added to each well containing a leaf disk or a petiole. Luminescence (relative light units, RLU) was measured every 4

[8] = Surface tension and CMC, Fisher tensiometer, du Noüy ring method; type: physicochemical; set-up: γ CMC (surface tension at CMC): unit not given here; conditions: pH 7.0; synthetic samples
Procedure: Biosurfactants are molecules that can associate with each other leading to the formation of micelles. They can also interact with surfaces between phases of different polarity such as the air/water or oil/water interface.[77] To gain quantitative insights into the surface-active properties of microbial glycolipids, the surface tensions at CMC (γCMC) of ananatoside A (1) and ananatoside B (2) were measured using a Fisher tensiometer by means of the du Noüy ring method. The CMC, referring to the concentration of surfactant at which micelles start to form, was determined from a plot of surface tension again each concentration. […] Consequently, the surface tension measurements were performed quickly to avoid the precipitation of ananatoside A (1) into the aqueous medium.

[9] = Emulsifying activity against hydrocarbon contaminants; type: physicochemical; conditions: cyclohexane and kerosene
Procedure: Therefore, the emulsifying properties of microbial biosurfactants 1–3 were evaluated against light as well as heavy hydrocarbon contaminants such as cyclohexane and kerosene, respectively (see Fig. S7 ^†).

[10] = sheep blood erythrocytes, 1 h, 37 °C, max tested 200 μM
[11] = DLD-1 colorectal adenocarcinoma cells

CCCCCCCC1CC(=O)OC2C(O)C(C)OC(OC(CCCCCCC)CC(=O)O1)C2O (stereo not drawn) [Compound 6α]
Hemolysis (HC50 in μM) Erythrocytes (sheep blood erythrocytes; [10]): >200 ^d μM | IC50 [1]: > 200 µM | IC50 [2]: > 200 µM | IC50 [3]: > 200 µM

CCCCCCCC1CC(=O)OC2C(C)OC(OC(CCCCCCC)CC(=O)O1)C(O)C2O (stereo not shown) [Compound 4]
Hemolysis (HC50 in μM) Erythrocytes (sheep blood erythrocytes; [10]): 12.0 ± 0.7 µM | IC50 at 48 h ([4]; A549 lung carcinoma cells): 56 ± 2 µM | IC50 at 48 h [4, 11]: 70 ± 10 µM | IC50 at 48 h ([4]; WS1 normal skin fibroblasts): 57 ± 1 µM | IC50 at 48 h [5]: 50 to 112 µM

CCCCCCC[C@H](CC(=O)O)OC(=O)C[C@@H](CCCCCCC)O[C@@H]1O[C@@H](C)[C@H](O)[C@@H](O)[C@H]1O [Compound 3, RhaC10C10]
Z-Average (hydrodynamic diameter of micelles) [6]: 92.1 nm | Hemolysis (HC50 in μM) Erythrocytes (sheep blood erythrocytes; [10]): 65 ± 6 µM | pKa [7]: 5.5 | IC50 at 48 h ([4]; A549 lung carcinoma cells): > 200 µM | IC50 at 48 h [4, 11]: > 200 µM | IC50 at 48 h ([4]; WS1 normal skin fibroblasts): > 200 µM | IC50 at 48 h [5]: > 200 µM | Extracellular ROS production (tomato leaf disks): triggered a long-lasting and strong production of ROS | CMC (critical micelle concentration) [8]: 58 ± 1 µM | γ CMC (surface tension at CMC) [8]: 30 ± 1 | Emulsifying activity [9]: equally able to generate emulsions with cyclohexane and kerosene

Triton X-100 [reference compound]
Hemolysis (HC50 in μM) Erythrocytes (sheep blood erythrocytes): c Half maximal inhibitory concentration measured on sheep blood erythrocytes. Triton X-100 was used as a positive control showing an HC50 value of 52 ± 2 μM.

CCCCCCCC1CC(=O)OC2C(O)C(C)OC(OC(CCCCCCC)CC(=O)O1)C2O (stereo not drawn) [Compound 6β]
Hemolysis (HC50 in μM) Erythrocytes (sheep blood erythrocytes; [10]): 12.3 ± 0.5 µM | IC50 at 48 h ([4]; A549 lung carcinoma cells): 112 ± 2 µM | IC50 at 48 h [4, 11]: 112 ± 3 µM | IC50 at 48 h ([4]; WS1 normal skin fibroblasts): 110 ± 1 µM | IC50 at 48 h [5]: 50 to 112 µM

CCCCCCCC1CC(=O)OC2C(OC(CCCCCCC)CC(=O)O1)OC(C)C(O)C2O (stereo not drawn) [Compound 5α]
Hemolysis (HC50 in μM) Erythrocytes (sheep blood erythrocytes; [10]): >200 ^d μM | IC50 at 48 h ([4]; A549 lung carcinoma cells): > 200 µM | IC50 at 48 h [4, 11]: > 200 µM | IC50 at 48 h ([4]; WS1 normal skin fibroblasts): > 200 µM | Extracellular ROS production (tomato leaf disks): did not show a similar sensing pattern

CCCCCCCC1CC(=O)OC2C(OC(CCCCCCC)CC(=O)O1)OC(C)C(O)C2O (stereo not drawn) [Compound 5β]
Hemolysis (HC50 in μM) Erythrocytes (sheep blood erythrocytes; [10]): 14 ± 2 µM | IC50 [1]: 110 ± 2 µM | IC50 [2]: 103 ± 7 µM | IC50 [3]: 105 ± 5 µM | IC50 at 48 h [5]: 50 to 112 µM | Extracellular ROS production (tomato leaf disks): induced a strong and long-lasting production of ROS following the initial burst at 200 min

COc1cc([C@@H]2c3cc4c(cc3[C@@H](O[C@@H]3O[C@@H]5CO[C@@H](C)O[C@H]5[C@H](O)[C@H]3O)[C@H]3COC(=O)[C@H]23)OCO4)cc(OC)c1O [Etoposide, reference compound]
IC50 at 48 h ([4]; A549 lung carcinoma cells): 1.2 µM | IC50 at 48 h [4, 11]: 27 µM | IC50 at 48 h ([4]; WS1 normal skin fibroblasts): 34 µM
